{"source": "patent US8586552B2", "about": "“4,6-substituted 2,5-dideoxystreptamine aminoglycoside antibiotics” (SelectX Pharmaceuticals, Inc., priority 2012, dated 2013)", "key": {"[1]": {"test_system": "Pseudomonas aeruginosa (Pae, PAWT, ATCC #27853)", "experiment": "MIC against Pseudomonas aeruginosa reference strain PAWT", "format": "cell-based", "conditions": "Pseudomonas aeruginosa wild type PAWT"}, "[2]": {"test_system": "Klebsiella pneumoniae (Kpn, KPWT, ATCC #700603)", "experiment": "MIC against Klebsiella pneumoniae reference strain KPWT", "format": "cell-based", "conditions": "Klebsiella pneumonia KPWT, Table 5 (unit not given); in µg/mL"}, "[3]": {"test_system": "Acinetobacter baumannii (Aba, ABWT, ATCC #BAA-747)", "experiment": "MIC against Acinetobacter baumannii reference strain ABWT", "format": "cell-based"}, "[4]": {"test_system": "Pseudomonas aeruginosa PR2 (clinical isolate with intermediate aminoglycoside resistance)", "experiment": "MIC against Pseudomonas aeruginosa clinical isolate PR2", "format": "cell-based", "conditions": "Pseudomonas aeruginosa resistant strain PR2"}, "[5]": {"test_system": "Klebsiella pneumoniae KR1 (clinical isolate with intermediate aminoglycoside resistance)", "experiment": "MIC against Klebsiella pneumoniae clinical isolate KR1", "format": "cell-based", "conditions": "Klebsiella pneumonia KR1; in µg/mL", "source_text": "(§1) Klebsiella pneumoniae (Kpn) and Escherichia coli (Eco) are gram-negative (like Pae), enteric pathogens with increasing clinical relevance. Many clinical isolates of Kpn and Eco harbor extended-spectrum beta-lactamases and are no longer sensitive to most beta-lactam antibiotics. We acquired clinical isolates of Klebsiella pneumoniae and Escherichia coli (Micromyx LLC, Kalamazoo, Mich.) and used this panel to test compounds for anti-enteric activity."}, "[6]": {"test_system": "Klebsiella pneumoniae KR3 (clinical isolate possessing high-level aminoglycoside resistance)", "experiment": "MIC against Klebsiella pneumoniae clinical isolate KR3", "format": "cell-based", "conditions": "Klebsiella pneumonia KR3; in µg/mL", "source_text": "as §1"}, "panel of E. coli strains": {"test_system": "panel of E. coli strains", "experiment": "MIC90 against a panel of E. coli strains", "format": "cell-based", "conditions": "in µg/mL"}, "[7]": {"test_system": "Acinetobacter baumannii AB2", "experiment": "MIC against Acinetobacter baumannii clinical isolate AB2", "format": "cell-based", "source_text": "Acinetobacter baumannii is another clinically important and very challenging gram negative pathogen. Members of the Acinetobacter genus, including baumannii, have a remarkable ability to upregulate and acquire resistance determinants. Coupled with its ability to survive for prolonged periods in a hospital environment, A. baumannii is an emerging threat for healthcare institutions globally. We acquired clinical isolates of Acinetobacter baumannii and used this panel to test compounds for anti-Acinetobacter activity. We first tested reference AGs against our panel of Aba strains."}, "P. aeruginosa 6294 MLP-3": {"test_system": "P. aeruginosa 6294 MLP-3", "experiment": "Rat neutropenic thigh model", "format": "in vivo", "method": "The compound identified as SXP 2523 was selected for further testing in vivo. Twenty male Sprague Dawley rats were pre-treated with cyclophosphamide to render them neutropenic on day −4 and day −1 with 100 mg/kg and 75 mg/kg respectively. Rats were infected with P. aeruginosa 6294 MLP-3, via injection into the right thigh muscle of 0.1 mL per rat. Two hours post infection rats were treated intravenously with either SXP-2523 or amikacin in a total dose of 10 or 60 mg/kg, respectively. The test article and control agent were delivered at 2, 4, and 6 hours post infection. Five rats were treated with each drug concentration. One group of five rats was euthanized at initiation of treatment and thigh CFUs were processed (T=Rx). Twenty-four hours post infection rats were euthanized by CO2 inhalation. The right thigh muscles of the rats were aseptically removed, weighed, homogenized, serially diluted, and plated on MacConkey medium. The plates were incubated overnight at 37° C. in 5% CO2. CFU per gram of thigh was calculated by enumerating the plated colonies then adjusting for serial dilutions and the weight of the thigh. The following table 7 summarizes the results Table 6: […]"}, "[8]": {"test_system": "resistant strain of P. aeruginosa (P. aeruginosa 6294 MLP-3)", "experiment": "Rat neutropenic thigh model against resistant P. aeruginosa", "format": "in vivo", "method": "The compound identified as SXP 2523 was further tested in vivo against a resistant strain of P. aeruginosa. Twenty male Sprague Dawley rats were rendered neutropenic by treatment with cyclophosphamide on day −4 and day −1 with 100 mg/kg and 75 mg/kg, respectively. Rats were infected with P. aeruginosa 6294 MLP-3, via injection into the right thigh muscle of 0.1 mL per rat. Two hours post infection rats were treated intravenously with either SXP-2523 or amikacin in a total dose of 10 or 60 mg/kg, respectively. The test article and control agent were delivered at 2, 4, and 6 hours post infection. Five rats were treated with each drug concentration. One group of five rats were euthanized at initiation of treatment and thigh CFUs were determined (T=Rx). Twenty-four hours post infection; rats were euthanized by CO2 inhalation. The right thigh muscles of the rats were aseptically removed, weighed, homogenized, serially diluted, and plated on BHI medium. The plates were incubated overnight at 37° C. in 5% CO2. CFU per gram of thigh was calculated by enumerating the plated colonies then adjusting for serial dilutions and the weight of the thigh."}, "[9]": {"conditions": "Log CFU/thigh, total dose 10 mg/kg SXP-2523 or 60 mg/kg amikacin iv"}, "[10]": {"conditions": "rat neutropenic thigh model, total dose 10 mg/kg iv"}, "[11]": {"conditions": "resistant P. aeruginosa, Log CFU/thigh, total dose 10 mg/kg SXP-2523 or 60 mg/kg amikacin iv"}}}
{"smiles": "NCCCNCC1OC(OC2C(NC(=O)C(O)CCN)CC(N)C(OC3OC(CN)C(O)CC3N)C2F)C(O)C(N)C1O", "note": "(stereo not shown) [SXP 2523]", "values": [{"measurement": "MIC PAWT", "setting": "[1]", "result": 0.25, "unit": "µg/mL"}, {"measurement": "MIC KPWT", "setting": "[2]", "result": "0.5-1"}, {"measurement": "MIC ABWT", "setting": "[3]", "result": 0.5, "unit": "µg/mL"}, {"measurement": "MIC PR2", "setting": "[4]", "result": 0.5, "unit": "µg/mL"}, {"measurement": "MIC KR1", "setting": "[5]", "result": "0.5-1"}, {"measurement": "MIC KR3", "setting": "[6]", "result": 1}, {"measurement": "MIC90 E. coli", "setting": "panel of E. coli strains", "result": 2}, {"measurement": "MIC AB2", "setting": "[7]", "result": 1, "unit": "µg/mL"}, {"measurement": "Change from 24 hr. control", "setting": "P. aeruginosa 6294 MLP-3; [9]", "result": "−0.71"}, {"measurement": "Change from T = Rx controls", "setting": "P. aeruginosa 6294 MLP-3; [9]", "result": 2.37}, {"measurement": "Log CFU/thigh", "setting": "P. aeruginosa 6294 MLP-3; neutropenic male Sprague Dawley rats, iv at 2, 4, 6 h post infection, total dose 10 mg/kg SXP-2523 or 60 mg/kg amikacin, 24 h post infection", "result": 6.55, "unit": "Log CFU/thigh"}, {"measurement": "efficacy against P. aeruginosa in animal model", "setting": "P. aeruginosa 6294 MLP-3; [10]", "result": "effective against P. aeruginosa"}, {"measurement": "efficacy against amikacin-resistant P. aeruginosa in animal model", "setting": "[8]; [10]", "result": "effective against amikacin-resistant P. aeruginosa"}, {"measurement": "Change from 24 hr. control", "setting": "[8]; [11]", "result": "−4.94"}, {"measurement": "Change from T = Rx controls", "setting": "[8]; [11]", "result": "−1.78"}, {"measurement": "Log CFU/thigh", "setting": "[8]; resistant P. aeruginosa, neutropenic male Sprague Dawley rats, iv at 2, 4, 6 h post infection, total dose 10 mg/kg SXP-2523 or 60 mg/kg amikacin, 24 h post infection", "result": 1.71, "unit": "Log CFU/thigh"}]}
